Test results from US20210189342A1, “COMPOSITIONS AND METHODS FOR MODULATING MONOCYTE AND MACROPHAGE INFLAMMATORY PHENOTYPES AND IMMUNOTHERAPY USES THEREOF” (Verseau Therapeutics, Inc., priority 2018, published 2021).

test system: CD48; experiment: siRNA dose response, CD48 mRNA knockdown, Dual-Glo Luciferase Assay; assay type: cell-based, human; settings: Hepa1-6 + reporter plasmid, 24 hr
Method: (§1) Dose response curves for siRNAs were generated in vitro using a variety of cell lines according to Table 4.
(§2) Briefly, cells were seeded in 96-well plates and reverse transfected with siRNA, Lipofectamine® 2000 (0.5 uL/well; ThermoFisher), and, in some cases, a reporter plasmid (50 ng/well). The reporter plasmid (psiCHECK™-2, Promega) encoded both firefly luciferase and the gene of interest fused to renilla luciferase; silencing of the gene of interest results in proportional silencing of renilla luciferase but leaves firefly luciferase unaffected as an internal control.
(§3) After 24 hr incubation at 37° C., mRNA knockdown was measured using an endpoint assay. For targets without a reporter plasmid, a branched DNA (bDNA) assay was performed according to the manufacturer's instructions (QuantiGene® Singleplex Gene Expression Assay, ThermoFisher) to measure both the target gene and GAPDH (housekeeping gene) mRNA. Data are plotted as siRNA concentration (nM) vs. remaining mRNA (ratio of target gene to GAPDH, normalized to mock siRNA-transfected cells). For targets with a reporter plasmid, a Dual-Glo® Luciferase Assay was performed according to the manufacturer's instructions (Promega) to measure firefly and renilla luciferase expression. Data are plotted as siRNA concentration (nM) vs. remaining mRNA (ratio of renilla to firefly luminescence, normalized to mock siRNA-transfected cells).
(§4) For all dose response curves, a 4-parameter logistic model was applied to determine the IC50 of each siRNA sequence (Table 5 and FIG. 2). Data shown in Table 5 and FIG. 2 represent the mean of quadruplicates, +/−standard deviation.

Q: For “XD-09720: siRNA targeting CD48 (sense 5'-cucuGGAAuuGcuacuGcudTsdT-3'; antisense 5'-AGcAGuAGcAAUUCcAGAGdTsdT-3'; as printed in the source, key not given here)”, which IC50 is on record?
A: 12 pM

Q: “XD-09721: siRNA targeting CD48 (sense 5'-cuAAccuGGuuuuauAcuudTsdT-3'; antisense 5'-AAGuAuAAAACcAGGUuAGdTsdT-3'; RNA with 2'-O-methyl and phosphorothioate modifications, case key not given here, as printed in the source, key not given here)” was tested. Which IC50 did it give?
A: 9 pM

Q: How did the IC50 turn out when “XD-09722: siRNA targeting CD48 (sense 5'-cuuucGAccAGAAgAuuGudTsdT-3'; antisense 5'-AcAAUCUUCUGGUCGAAAGdTsdT-3'; RNA with 2'-O-methyl and phosphorothioate modifications, case key not given here, as printed in the source, key not given here)” was run?
A: 14 pM

Q: Which IC50 does the source give for “XD-09723: siRNA targeting CD48 (sense 5'-uccAGAAAAucuAaGuAcudTsdT-3'; antisense 5'-AGuACUuAGAUUUUCUGGAdTsdT-3'; as printed in the source, key not given here)” here?
A: 30 pM

Q: For “XD-09724: siRNA targeting CD48 (sense 5'-gaAuccAAAuuuAaAGGcAdTsdT-3'; antisense 5'-UGCCUUuAAAUUUGGAUUCdTsdT-3'; as printed in the source, key not given here)”, which IC50 is on record?
A: 55 pM

Q: Which IC50 does the source give for “XD-09725: siRNA targeting CD48 (sense 5'-cccAAGccuGucAucAAAAdTsdT-3'; antisense 5'-UUUUGAUGAcAGGCUUGGGdTsdT-3'; RNA with 2'-O-methyl and phosphorothioate modifications, case key not given here, as printed in the source, key not given here)” here?
A: 22 pM

Q: How did the IC50 turn out when “XD-09726: siRNA targeting CD48 (sense 5'-acAAcuGuuAucugAAAcudTsdT-3'; antisense 5'-AGUUUcAGAuAAcAGUUGUdTsdT-3'; as printed in the source, key not given here)” was run?
A: 17 pM

Q: “XD-09727: siRNA targeting CD48 (sense 5'-ccuGGcGAGucuGuAAAcudTsdT-3'; antisense 5'-AGUUuAcAGACUCGCcAGGdTsdT-3'; as printed in the source, key not given here)” was tested. Which IC50 did it give?
A: 46 pM

Q: How did the IC50 turn out when “XD-09728: siRNA targeting CD48 (sense 5'-cuGGcGAGucuGuaAAcuAdTsdT-3'; antisense 5'-UagUUuAcAGACUCGCcAGdTsdT-3'; as printed in the source, key not given here)” was run?
A: 32 pM

Q: Which IC50 does the source give for “XD-09729: siRNA targeting CD48 (sense 5'-uguuAuAcuuGccaAGucAdTsdT-3'; antisense 5'-UGACUUGGcAAGuAuAAcAdTsdT-3'; as printed in the source, key not given here)” here?
A: 15 pM

test system: CD74; experiment: siRNA dose response, CD74 mRNA knockdown, bDNA Assay; assay type: cell-based, human; settings: THP-1, 24 hr
Method: as §1, §2, §3, §4

Q: “XD-09223: siRNA targeting CD74 (sense 5'-ggAGcuGucGGGAaGAucAdTsdT-3'; antisense 5'-UGAUCUUCCCGAcAGCUCCdTsdT-3'; as printed in the source, key not given here)” was tested. Which IC50 did it give?
A: 340 pM

Q: Which IC50 does the source give for “XD-09224: siRNA targeting CD74 (sense 5'-gcGcGAccuuAucuccAAcdTsdT-3'; antisense 5'-GUUGGAGAuAAGGUCGCGCdTsdT-3'; as printed in the source, key not given here)” here?
A: 1980 pM

Q: With “XD-09226: siRNA targeting CD74 (sense 5'-cuGGAcAAAcuGAcAGucAdTsdT-3'; antisense 5'-AGACUGUcAGUUUGUCcAGdTsdT-3'; RNA with 2'-O-methyl and phosphorothioate modifications, case key not given here, as printed in the source, key not given here)” as the substance, how does the IC50 read?
A: 143 pM

test system: SIGLEC7; experiment: siRNA dose response, SIGLEC7 mRNA knockdown, Dual-Glo Luciferase Assay; assay type: cell-based, human; settings: Hepa1-6 + reporter plasmid, 24 hr
Method: as §1, §2, §3, §4

Q: For “XD-10600: siRNA targeting SIGLEC7 (sense 5'-agAGuAAccGGAAgCAuusa-3'; antisense 5'-dTAAUCCUUCCGGUUACUCUusu-3'; RNA with 2'-O-methyl and phosphorothioate modifications, case key not given here, as printed in the source, key not given here)”, which IC50 is on record?
A: 155 pM

Q: With “XD-10601: siRNA targeting SIGLEC7 (sense 5'-gaGuAACcGGAAGgAuuasa-3'; antisense 5'-dTUAAUCCUUCCGGUuACUCusu-3'; RNA with 2'-O-methyl and phosphorothioate modifications, case key not given here, as printed in the source, key not given here)” as the substance, how does the IC50 read?
A: 127 pM

Q: Which IC50 does the source give for “XD-10602: siRNA targeting SIGLEC7 (sense 5'-guAAccGGAAGGAuuAcusa-3'; antisense 5'-dTAGuAAUCCUUCCGGUuACusu-3'; RNA with 2'-O-methyl and phosphorothioate modifications, case key not given here, as printed in the source, key not given here)” here?
A: 3530 pM

Q: For “XD-10603: siRNA targeting SIGLEC7 (sense 5'-cgGAAGGAuuAcucGcugsa-3'; antisense 5'-dTCAGCGAGuAAUCCUUCCGusu-3'; RNA with 2'-O-methyl and phosphorothioate modifications, case key not given here, as printed in the source, key not given here)”, which IC50 is on record?
A: 29 pM

Q: How did the IC50 turn out when “XD-10604: siRNA targeting SIGLEC7 (sense 5'-ggAAGGAuuAcucgcuGasa-3'; antisense 5'-dTUcAGCGAGuAAUCCUUCCusu-3'; RNA with 2'-O-methyl and phosphorothioate modifications, case key not given here, as printed in the source, key not given here)” was run?
A: 32 pM

Q: With “XD-10605: siRNA targeting SIGLEC7 (sense 5'-ggAuuACucGcuGacGAusa-3'; antisense 5'-dTAUCGUcAGCGAGUAAUCCusu-3'; RNA with 2'-O-methyl and phosphorothioate modifications, case key not given here, as printed in the source, key not given here)” as the substance, how does the IC50 read?
A: 22 pM

Q: For “XD-10606: siRNA targeting SIGLEC7 (sense 5'-ccGuGcAAGAGGGcAuGusa-3'; antisense 5'-dTAcAUGCCCUCUUGcACGGusu-3'; RNA with 2'-O-methyl and phosphorothioate modifications, case key not given here, as printed in the source, key not given here)”, which IC50 is on record?
A: 45 pM

Q: How did the IC50 turn out when “XD-10607: siRNA targeting SIGLEC7 (sense 5'-cgGGcAGGGAAuGauAuasa-3'; antisense 5'-dTUAuAUcAUUCCCUGCCCGusu-3'; as printed in the source, key not given here)” was run?
A: 39 pM

Q: How did the IC50 turn out when “XD-10608: siRNA targeting SIGLEC7 (sense 5'-gcAGGGAAuGAuAuAAGcsa-3'; antisense 5'-dTGCUuAuAUcAUUCCCUGCusu-3'; as printed in the source, key not given here)” was run?
A: 56 pM

Q: With “XD-10609: siRNA targeting SIGLEC7 (sense 5'-ggAAuGAuAuAAGcuGGasa-3'; antisense 5'-dTUCcAGCUuAuAUCAUUCCusu-3'; as printed in the source, key not given here)” as the substance, how does the IC50 read?
A: 59 pM
